Measurements taken from patent US20110318741A1, “BIOMARKERS FOR THE TREATMENT OF PSORIASIS” (priority 2010, published 2011).

Test system: proinflammatory gene products in psoriasis lesional skin
Experiment: mRNA abundance of inflammatory molecules in skin biopsies by real-time RT-PCR, normalized to hARP
Format: in vivo, human
Conditions: for IL-22/hARP: Gene Expression Median Change (%) / IL-2/hARP: Gene Expression Median Change (%) / p40/hARP: Gene Expression Median Change (%) / CD83/hARP: Gene Expression Median Change (%) / IFNγ/hARP: Gene Expression Median Change (%) / iNOS/hARP: Gene Expression Median Change (%) / DEFB4/hARP: Gene Expression Median Change (%) / IL-17A/hARP: Gene Expression Median Change (%) / CXCL9/hARP: Gene Expression Median Change (%) / MX1/hARP: Gene Expression Median Change (%) / TNFα/hARP: Gene Expression Median Change (%) / IL-8/hARP: Gene Expression Median Change (%) / IL-10/hARP: Gene Expression Median Change (%) / K16/hARP: Gene Expression Median Change (%) / p19/hARP: Gene Expression Median Change (%): subjects also with PASI values
Protocol: mRNA abundance for a variety of inflammatory molecules was measured by real-time RT-PCR and expression was normalized to the house-keeping gene HARP (human acidic ribosomal protein). Inflammatory markers assessed by mRNA levels included the chemokine CXCL9, beta-defensin (DEFB4), interferon-gamma, IL-10, IL-17a, IL-22, IL-8, keratin 16, MX-1, IL-12/23 p40, IL-23 p19, iNOS and TNF. These are inflammatory molecules produced by activated DC populations, Th1, Th17, Th22 T-cells and response genes to interferon (MX-1. CXCL9) or IL-17 (defensin). Keratin 16 was also measured by mRNA levels to assess the epidermal response by an alternate means.
The pharmacodynamic effects of (S)—N-(2-(1-(3-ethoxy-4-methoxyphenyl)-2-(methylsulfonyl)ethyl)-1,3-dioxoisoindolin-4-yl)acetamide were studied in skin biopsies from subjects treated with the compound in a phase 2, multi-center, open-label study evaluating the safety, tolerability, and efficacy of the compound in recalcitrant psoriasis vulgaris. Skin biopsies were taken from uninvolved and involved skin at baseline, and from involved skin after treatment with (S)—N-(2-(1-(3-ethoxy-4-methoxyphenyl)-2-(methylsulfonyl)ethyl)-1,3-dioxoisoindolin-4-yl)acetamide 20 mg BID after 4 and 12 weeks.
The expression of proinflammatory gene products known to be involved in the pathogenesis of psoriasis was measured by real-time polymerase chain reaction (RT-PCR). With regard to gene expression, there were reductions in iNOS and IL-12/IL-23 p40 mRNAs along with reductions in IL-17A and IL-22 mRNAs, indicating inhibition of the Th1, Th17, and Th22 pathways (FIG. 5). […] Normalized IL-17A mRNA levels were reduced by 49% at week 12 and normalized IL-22 mRNA levels were reduced by 100% at week 12. DEFB4, a defensin induced in keratinocytes by IL-17, was reduced by 55% in week 4 biopsies and by 82% in week 12 biopsies. IL-8, which is induced in keratinocytes by IL-17, was reduced by 76% in week 4 biopsies and by 66% in week 12 biopsies.

CCOc1cc([C@@H](CS(C)(=O)=O)N2C(=O)c3cccc(NC(C)=O)c3C2=O)ccc1OC [(S)—N-(2-(1-(3-ethoxy-4-methoxyphenyl)-2-(methylsulfonyl)ethyl)-1,3-dioxoisoindolin-4-yl)acetamide]
IL-22/hARP: Gene Expression Median Change (%) (Week 4, 20 mg BID, No. 10): −74.4%
IL-2/hARP: Gene Expression Median Change (%) (Week 4, 20 mg BID, No. 12): 3.33%
p40/hARP: Gene Expression Median Change (%) (Week 4, 20 mg BID, No. 13): −100%
CD83/hARP: Gene Expression Median Change (%) (Week 4, 20 mg BID, No. 15): −12.4%
IFNγ/hARP: Gene Expression Median Change (%) (Week 4, 20 mg BID, No. 15): −38.2%
iNOS/hARP: Gene Expression Median Change (%) (Week 4, 20 mg BID, No. 15): −61.0%
DEFB4/hARP: Gene Expression Median Change (%) (Week 4, 20 mg BID, No. 16): −55.4%
IL-17A/hARP: Gene Expression Median Change (%) (Week 4, 20 mg BID, No. 16): −72.5%
CXCL9/hARP: Gene Expression Median Change (%) (Week 4, 20 mg BID, No. 17): −30.7%
MX1/hARP: Gene Expression Median Change (%) (Week 4, 20 mg BID, No. 17): −51.1%
TNFα/hARP: Gene Expression Median Change (%) (Week 4, 20 mg BID, No. 17): −13.0%
IL-8/hARP: Gene Expression Median Change (%) (Week 4, 20 mg BID, No. 18): −76.4%
IL-10/hARP: Gene Expression Median Change (%) (Week 4, 20 mg BID, No. 18): −49.1%
K16/hARP: Gene Expression Median Change (%) (Week 4, 20 mg BID, No. 18): −62.0%
p19/hARP: Gene Expression Median Change (%) (Week 4, 20 mg BID, No. 18): −53.4%
CXCL9 (MIG) mRNA: Median % change from baseline (normalized to hARP) (Week 4, 20 mg b.i.d.): −30.7%
DEFB4 mRNA: Median % change from baseline (normalized to hARP) (Week 4, 20 mg b.i.d.): −55.4%
IFN-g mRNA: Median % change from baseline (normalized to hARP) (Week 4, 20 mg b.i.d.): −38.2%
IL-8 mRNA: Median % change from baseline (normalized to hARP) (Week 4, 20 mg b.i.d.): −76.4%
IL-10 mRNA: Median % change from baseline (normalized to hARP) (Week 4, 20 mg b.i.d.): −49.1%
IL-12/IL-23 p40 mRNA: Median % change from baseline (normalized to hARP) (Week 4, 20 mg b.i.d.): −100%
IL-17A mRNA: Median % change from baseline (normalized to hARP) (Week 4, 20 mg b.i.d.): −72.5%
IL-22 mRNA: Median % change from baseline (normalized to hARP) (Week 4, 20 mg b.i.d.): −74.4%
IL-23p19 mRNA: Median % change from baseline (normalized to hARP) (Week 4, 20 mg b.i.d.): −53.4%
K-16 mRNA: Median % change from baseline (normalized to hARP) (Week 4, 20 mg b.i.d.): −62.0%
MX-1 mRNA: Median % change from baseline (normalized to hARP) (Week 4, 20 mg b.i.d.): −51.1%
iNOS mRNA: Median % change from baseline (normalized to hARP) (Week 4, 20 mg b.i.d.): −61.0%
median reduction in normalized MX-1 mRNA (Week 4, 20 mg b.i.d.): 51%
reduction of normalized iNOS mRNA expression (Week 4, 20 mg b.i.d.): 61%
IL-22/hARP: Gene Expression Median Change (%) (Week 12, 20 mg BID, No. 6): −100%
p40/hARP: Gene Expression Median Change (%) (Week 12, 20 mg BID, No. 7): −51.5%
DEFB4/hARP: Gene Expression Median Change (%) (Week 12, 20 mg BID, No. 10): −82.0%
IL-2/hARP: Gene Expression Median Change (%) (Week 12, 20 mg BID, No. 10): −25.0%
IL-17A/hARP: Gene Expression Median Change (%) (Week 12, 20 mg BID, No. 10): −46.7%
CD83/hARP: Gene Expression Median Change (%) (Week 12, 20 mg BID, No. 11): 27.39%
CXCL9/hARP: Gene Expression Median Change (%) (Week 12, 20 mg BID, No. 11): −15.8%
MX1/hARP: Gene Expression Median Change (%) (Week 12, 20 mg BID, No. 11): −51.5%
iNOS/hARP: Gene Expression Median Change (%) (Week 12, 20 mg BID, No. 11): −100%
IFNγ/hARP: Gene Expression Median Change (%) (Week 12, 20 mg BID, No. 12): −15.3%
TNFα/hARP: Gene Expression Median Change (%) (Week 12, 20 mg BID, No. 13): −41.3%
IL-8/hARP: Gene Expression Median Change (%) (Week 12, 20 mg BID, No. 14): −79.2%
IL-10/hARP: Gene Expression Median Change (%) (Week 12, 20 mg BID, No. 14): −15.3%
K16/hARP: Gene Expression Median Change (%) (Week 12, 20 mg BID, No. 14): −82.5%
p19/hARP: Gene Expression Median Change (%) (Week 12, 20 mg BID, No. 14): −67.9%
CXCL9 (MIG) mRNA: Median % change from baseline (normalized to hARP) (Week 12, 20 mg b.i.d.): −36.4%
DEFB4 mRNA: Median % change from baseline (normalized to hARP) (Week 12, 20 mg b.i.d.): −82.3%
IFN-g mRNA: Median % change from baseline (normalized to hARP) (Week 12, 20 mg b.i.d.): −37.6%
IL-8 mRNA: Median % change from baseline (normalized to hARP) (Week 12, 20 mg b.i.d.): −66.5%
IL-10 mRNA: Median % change from baseline (normalized to hARP) (Week 12, 20 mg b.i.d.): −26.5%
IL-12/IL-23 p40 mRNA: Median % change from baseline (normalized to hARP) (Week 12, 20 mg b.i.d.): −86.7%
IL-17A mRNA: Median % change from baseline (normalized to hARP) (Week 12, 20 mg b.i.d.): −49.4%
IL-22 mRNA: Median % change from baseline (normalized to hARP) (Week 12, 20 mg b.i.d.): −100%
IL-23p19 mRNA: Median % change from baseline (normalized to hARP) (Week 12, 20 mg b.i.d.): −68.3%
K-16 mRNA: Median % change from baseline (normalized to hARP) (Week 12, 20 mg b.i.d.): −78.6%
MX-1 mRNA: Median % change from baseline (normalized to hARP) (Week 12, 20 mg b.i.d.): −52.6%
iNOS mRNA: Median % change from baseline (normalized to hARP) (Week 12, 20 mg b.i.d.): −100%
median reduction in K16 mRNA (Week 12, 20 mg b.i.d.): 78%
reduction in normalized MX-1 mRNA (Week 12, 20 mg b.i.d.): 52%
reduction of normalized IL-17A mRNA levels (Week 12, 20 mg b.i.d.): 49%
reduction of normalized IL-22 mRNA levels (Week 12, 20 mg b.i.d.): 100%
reduction of normalized iNOS mRNA expression (Week 12, 20 mg b.i.d.): 100%
reduction in IFN-γ gene expression in the skin (week 4, the three subjects who attained a PASI-75 or better at week 12): 100%
IL-12/23 p40 mRNA levels (week 4 and week 12 biopsies, 20 mg b.i.d.): significant reductions
reduction of normalized expression of IL-8 (week 4 biopsies, 20 mg b.i.d.): 76%
inhibition of gene expression, responders vs non-responders (week 12, 20 mg BID): greater among responders
reduction of normalized expression of IL-8 (week 12 biopsies, 20 mg b.i.d.): 66%
